ChEMBL document CHEMBL1201862, “PubChem BioAssay data set” (2004)
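Results reflect a 48-hour exposure of cells in 96-well plates to compound at five concentrations. Here, GI50 denotes the concentration required for 50% inhibition of growth.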 Activity calls are given as the source filed them. Rule as the data show it: active = GI50 up to about 1.1 µM and inactive = higher.

Columns and labels:
Assay in all cases: NCI tumour cell line growth inhibition, 48 h
ACHN = system: ACHN
EKVX = system: EKVX
HOP-18 = system: HOP-18
K562 = system: K562
KM12 = system: KM12
LOX IMVI = system: LOX IMVI
OVCAR-5 = system: OVCAR-5
OVCAR-8 = system: OVCAR-8
SF-268 = system: SF-268
SF-539 = system: SF-539
SK-MEL-2 = system: SK-MEL-2
SNB-19 = system: SNB-19
UACC-257 = system: UACC-257
CCRF-CEM = system: CCRF-CEM
NCI-H522 = system: NCI-H522
UO-31 = system: UO-31
DU-145 = system: DU-145
HL-60 = system: HL-60
Hs-578T = system: Hs-578T
MCF7 = system: MCF7

Measured: GI50

CC(C)(C)/N=C\N1CCC(C(c2ccccc2)c2ccccc2)CC1
inactive: ACHN 82.4 µM | EKVX > 100 µM | HOP-18 53.2 µM | K562 35.1 µM | KM12 65.8 µM | LOX IMVI 23.8 µM | OVCAR-5 54.2 µM | OVCAR-8 > 100 µM | SF-268 49.8 µM | SF-539 78.7 µM | SK-MEL-2 > 100 µM | SNB-19 > 100 µM | UACC-257 37.3 µM

O=C(c1ccccc1)c1cn(/N=C\c2ccccc2)c(=O)nc1-c1ccccc1
inactive: ACHN > 100 µM | CCRF-CEM 70 µM | EKVX > 100 µM | HOP-18 > 100 µM | K562 > 100 µM | KM12 > 100 µM | LOX IMVI > 100 µM | NCI-H522 > 100 µM | OVCAR-5 > 100 µM | OVCAR-8 > 100 µM | SF-268 > 100 µM | SF-539 > 100 µM | SK-MEL-2 > 100 µM | SNB-19 > 100 µM | UACC-257 > 100 µM | UO-31 > 100 µM

CCCCCC(=O)OC[n+]1ccc(-c2c(COC(=O)NC(C)C)c(COC(=O)NC(C)C)c3n2CCC3)cc1
inactive: ACHN 50.9 µM | CCRF-CEM 43.2 µM | DU-145 > 35.5 µM | EKVX > 100 µM | HL-60 37.3 µM | Hs-578T > 100 µM | K562 > 100 µM | KM12 > 100 µM | LOX IMVI > 100 µM | MCF7 77.1 µM | NCI-H522 > 100 µM | OVCAR-5 > 100 µM | OVCAR-8 > 100 µM | SF-268 > 94.6 µM | SF-539 > 100 µM | SK-MEL-2 > 100 µM | SNB-19 > 100 µM | UACC-257 > 100 µM | UO-31 > 100 µM

CC(C)(C)[C@H]1CCC2(OCCO2)[C@](O)(CCCO)C1
inactive: ACHN > 100 µM | CCRF-CEM > 100 µM | DU-145 > 100 µM | EKVX > 100 µM | HL-60 > 100 µM | Hs-578T > 100 µM | K562 > 100 µM | KM12 > 100 µM | LOX IMVI > 100 µM | MCF7 > 100 µM | NCI-H522 > 100 µM | OVCAR-5 > 100 µM | OVCAR-8 > 100 µM | SF-268 > 100 µM | SF-539 > 100 µM | SK-MEL-2 > 100 µM | SNB-19 > 100 µM | UACC-257 > 100 µM | UO-31 > 100 µM

NS(=O)(=O)c1ccc(NC(=O)Cc2nc3ccccc3s2)cc1
inactive: ACHN 15.5 µM | CCRF-CEM 13.4 µM | EKVX 22.6 µM | HL-60 19.1 µM | HOP-18 17.8 µM | K562 23.6 µM | KM12 16.3 µM | NCI-H522 18.1 µM | OVCAR-5 20.7 µM | OVCAR-8 20.4 µM | SF-268 16.2 µM | SF-539 18.3 µM | SK-MEL-2 14.9 µM | SNB-19 23.5 µM | UACC-257 15.8 µM | UO-31 22.5 µM

CSC(=S)N/N=C/c1ccccc1
inactive: ACHN 43.4 µM | CCRF-CEM 26 µM | DU-145 42.3 µM | EKVX 24.4 µM | HL-60 36 µM | Hs-578T > 100 µM | K562 42.5 µM | KM12 65.6 µM | LOX IMVI 45.1 µM | MCF7 33.6 µM | NCI-H522 52.6 µM | OVCAR-5 > 100 µM | OVCAR-8 37.1 µM | SF-268 40.1 µM | SF-539 56.6 µM | SK-MEL-2 > 100 µM | SNB-19 53.7 µM | UACC-257 > 100 µM | UO-31 34.7 µM

O=C1OC(=O)C2C1C(c1ccccc1[N+](=O)[O-])C=C(c1ccco1)N2c1ccncc1 (stereo not given)
inactive: ACHN 1.85 µM | CCRF-CEM 2.29 µM | DU-145 7.01 µM | EKVX 15.2 µM | HL-60 1.77 µM | Hs-578T > 25.9 µM | K562 1.35 µM | KM12 1.98 µM | LOX IMVI 1.87 µM | MCF7 2.1 µM | NCI-H522 2.28 µM | OVCAR-5 18.2 µM | OVCAR-8 10.7 µM | SF-268 10.3 µM | SF-539 4.65 µM | SK-MEL-2 13.9 µM | SNB-19 8.39 µM | UACC-257 2.08 µM | UO-31 6.01 µM

CCCCCCCCCCCCCCC(C)CCC(=O)O (stereo not given)
inactive: ACHN > 100 µM | EKVX > 100 µM | HOP-18 > 100 µM | KM12 49.8 µM | LOX IMVI 31.6 µM | OVCAR-5 > 100 µM | OVCAR-8 > 100 µM | SF-268 > 100 µM | SF-539 48.9 µM | SK-MEL-2 60 µM | SNB-19 > 100 µM | UACC-257 > 100 µM

CCOC(=O)C12CC(C)=C(C)CC1CCCc1ccccc12 (stereo not given)
inactive: ACHN 18.8 µM | CCRF-CEM 18.4 µM | DU-145 34 µM | EKVX 21.1 µM | HL-60 11.2 µM | Hs-578T 36.1 µM | K562 21.2 µM | KM12 29.6 µM | LOX IMVI 17.1 µM | MCF7 17 µM | NCI-H522 17.6 µM | OVCAR-5 21.4 µM | OVCAR-8 28.9 µM | SF-268 38.9 µM | SF-539 28.2 µM | SK-MEL-2 15.5 µM | SNB-19 29.6 µM | UACC-257 17.6 µM | UO-31 47 µM

COC(=O)c1c2c(cc3c1CC1(Cc4cc5c(cc4C1=O)CCC5)C3)CCC2 (stereo not given)
inactive: ACHN 86.1 µM | CCRF-CEM 11 µM | DU-145 > 100 µM | EKVX 56.1 µM | HL-60 > 100 µM | Hs-578T 16.4 µM | K562 7.94 µM | KM12 38.7 µM | LOX IMVI 7.18 µM | MCF7 24.7 µM | NCI-H522 19.9 µM | OVCAR-5 > 100 µM | OVCAR-8 27.6 µM | SF-268 85.9 µM | SF-539 97.7 µM | SK-MEL-2 > 100 µM | SNB-19 > 100 µM | UACC-257 17.5 µM | UO-31 > 100 µM

O/N=C1/C(=C/c2ccc3c(c2)OCO3)CCCC1C(NO)c1ccc2c(c1)OCO2 (stereo not given)
inactive: ACHN 31.6 µM | CCRF-CEM 19.2 µM | EKVX 35.1 µM | HL-60 15.9 µM | HOP-18 18.2 µM | K562 24.9 µM | KM12 22.7 µM | NCI-H522 17.7 µM | OVCAR-8 24.6 µM | SF-268 28.2 µM | SF-539 18 µM | SK-MEL-2 21.4 µM | SNB-19 32.4 µM | UACC-257 17.8 µM | UO-31 23.4 µM

Nn1c(Nc2ccc(S(N)(=O)=O)cc2)nnc(/C=C/c2c(O)ccc3ccccc23)c1=O
inactive: ACHN 30.3 µM | CCRF-CEM 4.03 µM | DU-145 26.3 µM | EKVX 13.3 µM | HL-60 7.74 µM | Hs-578T 31 µM | K562 17 µM | KM12 19.6 µM | LOX IMVI 12.9 µM | MCF7 17.5 µM | NCI-H522 13.5 µM | OVCAR-5 21.6 µM | OVCAR-8 3.08 µM | SF-268 42.1 µM | SF-539 35.7 µM | SK-MEL-2 39.8 µM | SNB-19 32.5 µM | UACC-257 27.5 µM | UO-31 22.9 µM
